Experimental data taken from patent publication US10420772B2, “Animal and human anti-trypanosomonal and anti-leishmania agents” (Celgene Corporation, priority 2016, dated 2019).

Tests used:
Type in all cases: cell-based
[1] = system: STIB 719/ILRAD 560 T. vivax (drug sensitive) strain; test: Ex vivo Alamar Blue 48 hrs drug sensitivity assay for T. vivax; settings: Trypanosoma vivax, STIB719; STIB 719/ILRAD 560 T. vivax bloodstream form, ex vivo, Alamar Blue, 48 hrs; read-out: T. vivax Act.
Summary of the method: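 Bloodstream-form trypanosomes taken from a parasitaemic mouse were exposed to compound for 45 h at 37°C, 5% CO2 in HMI medium with 20% bovine serum. Resazurin added for a further 3 h, fluorescence read at ex 536/em 588 nm. IC50 from 11-point sigmoidal curves, at least three independent runs.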

[2] = system: STIB 806 K T. evansi (drug sensitive) strain; test: In vitro Alamar Blue 72 hrs drug sensitivity assay for T. evansi; settings: STIB 806 K T. evansi bloodstream form, Alamar Blue, 72 hrs; read-out: T. evansi Act.
Method: In vitro Alamar Blue 72 hrs drug sensitivity assay for T. evansi. Compounds were tested in vitro for chemotherapeutic efficacy against the STIB 806 K T. evansi (drug sensitive) strain, using an Alamar Blue assay. Test compounds were prepared as 10 mg/mL DMSO stocks for each assay run. Compounds were assayed in at least three separate, independent test runs and an 11-point dilution curve was used to determine the IC50 values. Bloodstream form trypanosomes were incubated with test compounds for 69 hrs at 37° C. in a humidified atmosphere containing 5% CO2, supported in HMI media containing 15% horse serum. Thereafter, 10 μL of Resazurin dye (12.5 mg in 100 mL of phosphate buffered saline, Sigma-Aldrich, Buchs, Switzerland) were added for an additional 3 hrs. Plates were then read using a fluorescent plate reader (Spectramax, Gemini XS, Bucher Biotec, Basel, Switzerland) using an excitation wavelength of 536 nm and an emission wavelength of 588 nm. Data points were averaged to generate sigmoidal dose-response curves and IC50 values were determined using Softmax Pro 5.2 software.

[3] = system: IL3000 T. congolense (drug sensitive) strain; test: In vitro Alamar Blue 72 hrs drug sensitivity assay for T. congolense; settings: Trypanosoma congolense, IL3000 T. congolense bloodstream form, read-out: T. congo Act.
Summary of the method: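 Bloodstream-form IL3000 trypanosomes in HMI medium with 20% bovine serum were exposed to compound for 69 hrs at 34° C, 5% CO2. Resazurin was then added for 3 hrs and fluorescence read (ex 536/em 588 nm). IC50 came from 11-point sigmoidal curves over at least three independent runs.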

Measured: IC50

CC1(Nc2ncc3nc(Nc4cccc(C(F)(F)F)c4F)n([C@H]4CC[C@@H](CN)CC4)c3n2)CCOCC1 [A-46, 9-((1s,4s)-4-(aminomethyl)cyclohexyl)-N8-(2-fluoro-3-(trifluoromethyl)phenyl)-N2-(4-methyltetrahydro-2H-pyran-4-yl)-9H-purine-2,8-diamine]
< 150 nM: all assays above

CC1(Nc2ncc3nc(Nc4cc(F)cc(Cl)c4)n([C@H]4CC[C@@H](CN)CC4)c3n2)CCOCC1 [A-47, 9-((1s,4s)-4-(aminomethyl)cyclohexyl)-N8-(3-chloro-5-fluorophenyl)-N2-(4-methyltetrahydro-2H-pyran-4-yl)-9H-purine-2,8-diamine]
< 150 nM: all assays above

CC1(Nc2ncc3nc(Nc4cccc(Cl)c4F)n([C@H]4CC[C@@H](CN)CC4)c3n2)CCOCC1 [A-49, 9-((1s,4s)-4-(aminomethyl)cyclohexyl)-N8-(3-chloro-2-fluorophenyl)-N2-(4-methyltetrahydro-2H-pyran-4-yl)-9H-purine-2,8-diamine]
< 150 nM: all assays above
